Like-named read-outs stand apart in the source and are kept apart here.
Experiments:
Aβ(1-40) peptide [1] = target: T1, Aβ(1-40) peptide (Homo sapiens, UniProt P05067); test: Intrinsic tyrosine fluorescence titration of Aβ(1-40) with vitamin B12; conditions: 50 μM in PBS, 25° C., 1:1 binding stoichiometry, read-out: binding constant, KD
T1 construct: Synthetic Aβ(1-40) peptide was purchased from Biopeptide, Inc; purchased Biopeptide, Inc; host or cells: chemical synthesis
Method: Samples of Aβ(1-40) were reconstituted in phosphate buffer saline (PBS) (137 mM NaCl, 2.7 mM KCl, 10 mM Na2HPO4, 2 mM KH2PO4, pH 7.4), except in surface plasmon resonance experiments, as described below. Immediately after reconstitution into PBS, the pH of the solution was adjusted to 10, allowing for solubilization of the peptide. The pH was then readjusted to 7.4, followed by filtration through a 0.22 μm supor membrane filter. Concentrations of Aβ(1-40) were determined using UV-Vis spectroscopy (Cary 300 spectrophotometer, Varian, Inc) and an extinction coefficient of 1,490 M^−1 cm^−1 at 280 nm. Aβ(1-40) samples used in fluorescence experiments to examine peptide/B12 binding included freshly prepared, monomeric Aβ species and “aged” Aβ, incubated for seven days and containing high-molecular weight species.
Preparation of Vitamin B12 Samples. […] Concentrations of B12 were determined using UV-Vis spectroscopy (Cary300 spectrophotometer, Varian, Inc) and an extinction coefficient of 4,900 M^−1 cm^−1 at 525 nm.
Intrinsic Tyrosine Fluorescence Spectroscopy Experiments on Amyloid-Beta Peptide in the Presence of Vitamin B12. Intrinsic tyrosine fluorescence was measured as previously described by Lakowicz in Principles of Fluorescence Spectroscopy. […] The binding constant, KD, was calculated using equation (1) in SigmaPlot 9.0 (Systat Software, Inc.) assuming 1:1 binding stoichiometry. […]

Aβ(1-40) peptide [2] = target: T1, Aβ(1-40) peptide; test: Thioflavin T fluorescence, fibril formation by Aβ(1-40); format: biochemical; conditions: Aβ(1-40) 30 μM, 37° C.
Method: Thioflavin T Fluorescence Spectroscopy Experiments on Amyloid-Beta Peptide in the Presence of Vitamin B12. The Fluorescence signal was measured as previously described using a Biotek Flx800 fluorescence microplate reader. Aβ(1-40) peptide samples (30 μM) were incubated at 37° C. in the presence or absence of B12. Following incubation, ThT was added to a final concentration of 10 μM as a probe for fibril formation by Aβ(1-40). All fluoresce readings were corrected for 10 mM sodium phosphate buffer contribution. Thioflavin T (ThT) (Sigma Aldrich) was reconstituted in Nanopure water, aliquoted, and stored at −20° C. Concentration of ThT was determined using UV-Vis spectroscopy (Cary300 spectrophotometer, Varian, Inc) and an extinction coefficient of 36,000 M^−1 cm^−1 at 412 nm.

Aβ(1-40) = target: T2, Aβ(1-40) (Homo sapiens, UniProt P05067); test: Surface plasmon resonance (Biacore T-200), immobilized Aβ(1-40); conditions: freshly prepared Aβ(1-40) immobilized on CM5 chip, 25° C., fit to 1:1 binding model; read-out: binding constant (SPR)
T2 construct: Synthetic Aβ(1-40) peptide was purchased from Biopeptide, Inc; purchased Biopeptide, Inc; host or cells: chemical synthesis
Method: Surface Plasmon Resonance (SPR) Experiments. The binding of Aβ(1-40) and vitamin B12 was analyzed by SPR using a Biacore T-200 optical biosensor (Biacore/GE Healthcare). The Aβ peptide was immobilized on CM5 sensor chips using amine coupling chemistry. Briefly, the carboxymethyl dextran surface of a CM5 sensor chip was activated with a 1:1 mixture of 0.4 M 1-ethyl-3-(3-dimethylaminopropyl)-carbodiimide (EDC) and 0.1 M N-hydroxysuccinimide (NHS) at 25° C. A peptide surface (400-800 RU) was created by pulsing Aβ in 10 mM sodium acetate at pH 4.5 over the flow cell. The remaining binding sites on the dextran surface were blocked with […], pH 8.5. A reference surface was activated and blocked as outlined above.
Binding experiments were carried out using HBS-EP+ running buffer (0.1 M Hepes, 1.5 M NaCl, 30 mM EDTA, 0.05% v/v surfactant P-20, pH 7.4) at 25° C. All components were 0.22 μm-filtered prior to use. […] Data were analyzed using T200 BiaEvaluation 1.0 (Biacore) software and fit to a 1:1 binding model.
In the SPR experiments, freshly prepared Aβ(1-40) was immobilized on a chip. […] Referring to FIG. 7, a concentration dependent change in the refractive index at the surface of the chip was detected. This change, reflective of the Aβ peptide/B12 interaction, was monitored in real time. […]

hippocampal neurons = test: Aβ-induced neuronal cell death in hippocampal cell culture, Trypan Blue counting; format: cell-based, Wistar rat; conditions: pre-aggregated Aβ(1-40) 25 μM, B12 50, 25 or 12.5 μM, 72 hours
Method: Neuronal Cell Culture Experiments. Neuronal cell culture experiments were conducted using methodologies described previously by Lee, et al in Cell, Vol. 111(2), pages 219-230 (2002); Lei, et al in EMBO J, Vol. 21(12), pages 2977-2989 (2002); Xin, et al in J Neurosci, Vol. 25(1), pages 139-48 (2005); and Xin, et al in European Journal of Neuroscience, Vol. 21(3), pages 622-636 (2005).
Briefly, hippocampal tissue was dissected from Wistar rat embryos (18 days gestation or E18) at 4° C. Dissociated hippocampal neurons were plated at a density of approximately 2.0×10^4 cells/cm^2 onto 35 mm culture dishes coated with poly-D-lysine. Neurons were matured in culture for 21 days in vitro in NEUROBASAL® media (Invitrogen) supplemented with B27 (2%), bFGF2 (2 ng/mL) and L-glutamine (0.5 mM). The Aβ(1-40) was dissolved in DMSO, followed by dilution into culture medium (final DMSO concentration was 1%), and incubation at 37° C. for three days to form Aβ(1-40) oligomeric species. […]
Trypan Blue Staining and Cell Counting. […] Five random fields, one from each corner and one from the center of the dish, were counted for both live and dead cells at 63× magnification to obtain a percentage of cell death. […]
The physiological relevance of the B12/Aβ interaction was evaluated using neuronal cell culture experiments. […]

T1 sequence (P05067 672-711 limits assumed): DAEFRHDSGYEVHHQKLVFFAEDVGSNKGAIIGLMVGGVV
T2 sequence (P05067 672-711 limits assumed): as above

## C/C1=C2/[N-][C@H]([C@H](CC(N)=O)[C@@]2(C)CCC(=O)NC[C@@H](C)OP(=O)([O-])O[C@H]2[C@@H](O)[C@@H](n3cnc4cc(C)c(C)cc43)O[C@@H]2CO)[C@]2(C)N=C(/C(C)=C3N=C(/C=C4N=C1[C@@H](CCC(N)=O)C\4(C)C)[C@@H](CCC(N)=O)[C@]\3(C)CC(N)=O)[C@@H](CCC(N)=O)[C@]2(C)CC(N)=O.[Co+3].[OH-] [vitamin B12, hydroxocobalamin]
Aβ(1-40) peptide [1]; monomeric (freshly prepared) Aβ(1-40)
  Kd: 87 ± 2.7 µM
Aβ(1-40) peptide [1]; self-associated (aged, seven days) Aβ(1-40)
  Kd: 96.1 ± 3.5 µM
Aβ(1-40) peptide [2]; B12 added to fibrils formed in its absence
  ThT fluorescence after addition to pre-formed Aβ(1-40) aggregates (fibril dissociation): reduction of the ThT fluorescence
Aβ(1-40) peptide [2]; incubated with B12
  ThT fluorescence signal of Aβ(1-40) incubated in the presence of vitamin B12 (self-association): no increase in the ThT fluorescence signal
Aβ(1-40)
  Kd: 132 µM
Hippocampal neurons
  neuronal cell death upon addition of amyloid-beta peptide: alleviated
